From PMC8026785, “The pharmacokinetics of [^18F]UCB-H revisited in the healthy non-human primate brain” (EJNMMI Research, 2021)
Where “and” joins values, the source holds several entries; their conditions need not be identical. Equal values may be shown once.

Target: T1, SV2A (Macaca fascicularis, UniProt Q4R4X3)
T1 construct: The current study evaluates [^18F]UCB-H pharmacokinetics in healthy NHPs; from tissue; host or cells: brain of living healthy cynomolgus monkeys (in vivo PET)
Assay: Brain PET kinetic modelling (1TCM, 2TCM, 2TCM-c, Logan), test-retest
Format: in vivo, cynomolgus monkeys (Macaca fascicularis)
Experimental: All four non-human primates (NHP) underwent a 2-h (2 h) test and retest PET scan; two NHP underwent an additional 4-h (4 h) retest PET scan. Three NHP underwent one 4-h (4 h) displacement PET scan. Arterial blood sampling was performed during test and retest scans with PET imaging spaced by at least 3 weeks between each scan. To this end, the femoral artery opposite to the saphenous vein used for radioligand injection was cannulated. For the 2-h (2 h) scans, we collected in total 28 blood samples of 1 mL: 16 samples during the first 5 min followed by […] every 5 min and […] every 10 min. For the 4 h scans, we collected an additional 6 samples every 20 min during the last two hours (34 samples in total). Larger samples (2 – 3 mL) were collected at 5, 15, 30, 60, 90, 120 min (2 h) and at 180, 240 min (4 h) for metabolite analysis. Displacement of [^18F]UCB-H was done by intravenous (IV) administration 90 min after [^18F]UCB-H injection of a bolus of 30 mg/kg LEV, or of 80 µg/kg (≈250 nmol/kg) or 5 mg/kg (≈15 µmol/kg) of cold [^19F]-UCB-H. Full experimental design of all NHP is outlined in Additional file 1: Table 1.
PET imaging was performed on the microPET FOCUS220 (Siemens) under standard anesthesia and monitoring procedures. Data acquisition started with the IV bolus injection of [^18F]UCB-H (32.9 ± 1.0 MBq/kg, 0.35 ± 0.07 µg/kg). Dynamic PET images were reconstructed using standard OSEM-2D algorithms while correcting for radioactive decay, scatter, attenuation and detectors inhomogeneity, which were measured prior to PET scanning using respectively ^57Co and ^68Ge external sources.
PET image analysis was performed using PMOD software version 3.8 (PMOD Technologies Ltd., Zurich, Suisse). After individual co-registration of PET-MR images, a cynomolgus atlas published by Ballanger and coworkers was normalized to PET images to extract time activity curves in different brain regions. Volumes of interest (VOI) were cerebral white matter (16.7 cm^3), striatum (0.24 cm^3), thalamus (0.89 cm^3), cerebellum (3.83 cm^3), frontal—(2.50 cm^3), parietal—(5.35 cm^3), and temporal (8.22 cm^3) cortex, and whole brain (72.2 cm^3) as a composite region of all regions in the atlas. [^18F]UCB-H pharmacokinetics were evaluated by analyzing the time activity curves of the test- and retest scans using 1- and 2-tissue compartment models (unconstrained and constrained with global K1/k2 coupled fit across all regions, further referred to as 2TCM and 2TCM-c), and Logan graphical analysis with a fixed t* at 60 min [33] using the arterial plasma input function corrected for radio-metabolites to derive the volume of distribution in each region. Percentage standard error (%SE) was estimated from the theoretical parameter covariance matrix. Only reliable estimates (%SE less than 25%) were included in the current analyses. For the three drug studies, percent displacement of the total activity in the whole brain was estimated relative to an average baseline constructed from the two 4 h baseline studies. Briefly, Standardized Uptake Value (SUV) time activity curves (TACs) were calculated for the two baseline and the three displacement studies. Then, each curve was normalized to the SUV at t = 90 min, corresponding to the timeframe immediately before the administration of the drugs in the displacement studies. Baseline curves were averaged and the percent displacement of total activity was calculated as (baseline-displacement)/baseline at a given time post drug administration (see “Results”).
Statistical analysis was performed using R software (version 3.3.1.). Plasma, intact parent fraction and time activity curves were statistically compared between subjects using a one-factor variance analysis. Absolute Test–Retest variability (aTRV) of PET quantification parameters was calculated as ABS(test—retest) / AVERAGE(test, retest). […]

[1] = Cerebellum, Retest, individual NHP
[2] = Cerebellum, Test, individual NHP
[3] = Frontal Cortex, Retest, individual NHP
[4] = Frontal Cortex, Test, individual NHP

T1 sequence (Q4R4X3 whole entry): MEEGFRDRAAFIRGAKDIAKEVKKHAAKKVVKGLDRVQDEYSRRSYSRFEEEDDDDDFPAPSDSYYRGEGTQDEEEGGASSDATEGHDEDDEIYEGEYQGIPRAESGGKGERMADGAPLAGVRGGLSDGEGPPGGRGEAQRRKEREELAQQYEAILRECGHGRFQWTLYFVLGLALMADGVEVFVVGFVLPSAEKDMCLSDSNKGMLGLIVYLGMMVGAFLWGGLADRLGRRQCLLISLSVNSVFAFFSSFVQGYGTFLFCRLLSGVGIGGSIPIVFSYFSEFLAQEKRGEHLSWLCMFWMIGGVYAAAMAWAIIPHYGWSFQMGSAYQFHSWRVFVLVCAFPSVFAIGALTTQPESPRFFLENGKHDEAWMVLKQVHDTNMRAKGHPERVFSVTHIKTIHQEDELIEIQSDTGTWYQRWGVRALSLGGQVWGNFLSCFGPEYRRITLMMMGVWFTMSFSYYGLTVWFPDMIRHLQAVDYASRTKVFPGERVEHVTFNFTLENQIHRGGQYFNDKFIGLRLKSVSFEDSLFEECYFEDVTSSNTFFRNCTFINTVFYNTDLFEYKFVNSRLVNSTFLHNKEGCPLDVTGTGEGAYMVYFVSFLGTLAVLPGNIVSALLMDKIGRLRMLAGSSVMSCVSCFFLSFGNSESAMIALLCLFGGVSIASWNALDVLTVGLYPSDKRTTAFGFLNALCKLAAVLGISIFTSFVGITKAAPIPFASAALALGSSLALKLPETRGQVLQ

SMILES: O=C1C[C@H](c2cc(F)c(F)c(F)c2)CN1Cc1ccncc1[18F] [[^18F]UCB-H]
- aTRV of VT (1TCM): above 10%
- ICC of VT, overall (2TCM-c): ~ 0.4
- aTRV of VT, overall (2TCM-c): ~ 17%
- k3/k4 (surrogate of BPND), average (2TCM-c, average): 1.07 ± 0.02 and 1.1
- ICC of Logan (t* = 60) VT (Cerebellum): 0.32
- aTRV of Logan (t* = 60) VT (Cerebellum): 14%
- K1 (2TCM) [1]: 0.62 ml/cm^3 /min and 0.26 ml/cm^3 /min and 0.34 ml/cm^3 /min and 0.36 ml/cm^3 /min
- K1 (2TCM-c) [1]: 0.58 ml/cm^3 /min and 0.24 ml/cm^3 /min and 0.34 ml/cm^3 /min and 0.36 ml/cm^3 /min
- K1/k2 (2TCM) [1]: 6.41 ml/cm^3 and 10.80 ml/cm^3 and 8.77 ml/cm^3
- K1/k2 (2TCM-c) [1]: 4.64 ml/cm^3 and 9.07 ml/cm^3 and 10.70 ml/cm^3 and 7.25 ml/cm^3
- VT (1TCM) [1]: 12.10 ml/cm^3 and 9.16 ml/cm^3 and 11.41 ml/cm^3 and 8.78 ml/cm^3
- VT (2TCM) [1]: 12.28 ml/cm^3
- VT (2TCM-c) [1]: 12.24 ml/cm^3 and 18.89 ml/cm^3 and 8.78 ml/cm^3
- VT (Logan) [1]: 12.38 ml/cm3 and 11.31 ml/cm3 and 11.82 ml/cm3 and 8.96 ml/cm3
- k3/k4 (2TCM-c) [1]: 1.64 and 0.80
- VT (1TCM) (Cerebellum, Retest, mean): 10.4 mL/cm^3
- VT (2TCM) (Cerebellum, Retest, mean): 12.3 mL/cm^3
- VT (2TCM-c) (Cerebellum, Retest, mean): 13.3 mL/cm^3
- VT (Logan (t* = 60)) (Cerebellum, Retest, mean): 11.1 mL/cm^3
- k3/k4 (BPND) (2TCM-c) (Cerebellum, Retest, mean): 1.22
- K1 (2TCM) [2]: 0.22 ml/cm^3 /min and 0.35 ml/cm^3 /min and 0.39 ml/cm^3 /min and 0.17 ml/cm^3 /min
- K1 (2TCM-c) [2]: 0.23 ml/cm^3 /min and 0.33 ml/cm^3 /min and 0.39 ml/cm^3 /min and 0.17 ml/cm^3 /min
- K1/k2 (2TCM) [2]: 5.68 ml/cm^3 and 6.39 ml/cm^3 and 10.81 ml/cm^3 and 6.69 ml/cm^3
- K1/k2 (2TCM-c) [2]: 4.35 ml/cm^3 and 8.22 ml/cm^3 and 10.99 ml/cm^3 and 7.86 ml/cm^3
- VT (1TCM) [2]: 8.70 ml/cm^3 and 9.24 ml/cm^3 and 12.07 ml/cm^3 and 9.02 ml/cm^3
- VT (2TCM) [2]: 10.64 ml/cm^3 and 10.48 ml/cm^3
- VT (2TCM-c) [2]: 9.72 ml/cm^3
- VT (Logan) [2]: 10.54 ml/cm3 and 10.32 ml/cm3 and 13.27 ml/cm3 and 10.85 ml/cm3
- k3/k4 (2TCM) [2]: 0.87
- k3/k4 (2TCM-c) [2]: 1.24
- VT (1TCM) (Cerebellum, Test, mean): 9.8 mL/cm^3
- VT (2TCM) (Cerebellum, Test, mean): 10.6 mL/cm^3
- VT (2TCM-c) (Cerebellum, Test, mean): 9.70 mL/cm^3
- VT (Logan (t* = 60)) (Cerebellum, Test, mean): 11.2 mL/cm^3
- k3/k4 (BPND) (2TCM-c) (Cerebellum, Test, mean): 1.24
- K1 (2TCM) [3]: 0.45 ml/cm^3 /min and 0.42 ml/cm^3 /min and 0.31 ml/cm^3 /min and 0.37 ml/cm^3 /min
- K1 (2TCM-c) [3]: 0.48 ml/cm^3 /min and 0.45 ml/cm^3 /min and 0.31 ml/cm^3 /min and 0.37 ml/cm^3 /min
- K1/k2 (2TCM) [3]: 12.79 ml/cm^3 and 10.20 ml/cm^3
- K1/k2 (2TCM-c) [3]: 4.64 ml/cm^3 and 9.07 ml/cm^3 and 10.70 ml/cm^3 and 7.25 ml/cm^3
- VT (1TCM) [3]: 14.34 ml/cm^3 and 16.78 ml/cm^3 and 11.35 ml/cm^3 and 12.88 ml/cm^3
- VT (2TCM) [3]: 14.38 ml/cm^3 and 12.14 ml/cm^3 and 12.88 ml/cm^3
- VT (2TCM-c) [3]: 14.39 ml/cm^3 and 18.59 ml/cm^3 and 12.71 ml/cm^3 and 12.90 ml/cm^3
- VT (Logan) [3]: 14.05 ml/cm3 and 20.21 ml/cm3 and 11.72 ml/cm3 and 13.18 ml/cm3
- k3/k4 (2TCM-c) [3]: 2.10 and 1.07 and 0.78
- K1 (2TCM) [4]: 0.24 ml/cm^3 /min and 0.53 ml/cm^3 /min and 0.38 ml/cm^3 /min and 0.22 ml/cm^3 /min
- K1 (2TCM-c) [4]: 0.25 ml/cm^3 /min and 0.55 ml/cm^3 /min and 0.38 ml/cm^3 /min and 0.22 ml/cm^3 /min
- K1/k2 (2TCM) [4]: 8.05 ml/cm^3 and 13.17 ml/cm^3 and 10.76 ml/cm^3 and 11.87 ml/cm^3
- K1/k2 (2TCM-c) [4]: 4.35 ml/cm^3 and 8.22 ml/cm^3 and 10.99 ml/cm^3 and 7.86 ml/cm^3
- VT (1TCM) [4]: 10.97 ml/cm^3 and 18.41 ml/cm^3 and 12.04 ml/cm^3 and 13.68 ml/cm^3
- VT (2TCM) [4]: 12.58 ml/cm^3 and 19.94 ml/cm^3
- VT (2TCM-c) [4]: 11.41 ml/cm^3 and 18.77 ml/cm^3 and 14.10 ml/cm^3
- VT (Logan) [4]: 12.20 ml/cm3 and 19.36 ml/cm3 and 13.14 ml/cm3 and 15.28 ml/cm3
- k3/k4 (2TCM) [4]: 0.56
- k3/k4 (2TCM-c) [4]: 1.63 and 1.51 and 0.61
- ICC of 2TCM-c VT (Frontal cortex): 0.84
- ICC of Logan (t* = 60) VT (Frontal cortex): 0.89
- aTRV of 2TCM-c VT (Frontal cortex): 11%
- aTRV of Logan (t* = 60) VT (Frontal cortex): 11%
- VT (1TCM) (Frontal cortex, Retest, mean): 13.8 mL/cm^3
